Laboratory results published in patent US11873298B2, “Compounds and uses thereof” (JANSSEN PHARMACEUTICA NV, priority 2017, dated 2024).
“And” between values parts separate entries of the source, which are not always exact repeats. Equal entries are not always repeated.

What was measured:
[1] = target: T1, Ole1 (Saccharomyces cerevisiae, UniProt P21147); assay: Growth inhibition of yeast strain expressing Ole1 as sole desaturase; type: cell-based; details: for IC50 / OLE1 % Max Inhibition: yeast strain expressing Ole1 as sole desaturase; for growth of yeast expressing OLE1 in presence of inhibitor: FIG. 6
T1 construct: expressed in transfected cells; host or cells: S. cerevisiae ole1Δ strain (W303 pdr1Δ pdr3Δ background), plasmid pRS316 with TDH3 promoter and CYC1 terminator
T1 sequence (P21147 1-510): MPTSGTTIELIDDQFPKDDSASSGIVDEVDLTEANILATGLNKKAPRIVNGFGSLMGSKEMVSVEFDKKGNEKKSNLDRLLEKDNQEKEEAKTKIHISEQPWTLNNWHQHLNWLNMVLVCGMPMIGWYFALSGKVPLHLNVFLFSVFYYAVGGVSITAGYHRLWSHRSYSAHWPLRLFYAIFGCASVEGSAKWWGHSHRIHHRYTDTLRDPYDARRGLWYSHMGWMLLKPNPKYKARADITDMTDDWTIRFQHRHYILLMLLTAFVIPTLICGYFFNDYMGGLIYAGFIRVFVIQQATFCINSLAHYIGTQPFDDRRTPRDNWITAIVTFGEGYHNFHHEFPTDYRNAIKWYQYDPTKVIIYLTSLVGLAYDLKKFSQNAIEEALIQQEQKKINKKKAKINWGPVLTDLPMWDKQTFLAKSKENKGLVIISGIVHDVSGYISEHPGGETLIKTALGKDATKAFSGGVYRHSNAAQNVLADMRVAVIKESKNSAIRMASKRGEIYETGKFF
In short: (§1)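 Yeast ole1Δ strain (W303 pdr1Δ pdr3Δ background) carrying plasmid-borne Ole1, SCD1 or SCD5 as sole desaturase was grown in uracil-lacking media, pre-cultured in raffinose for 6 h, then seeded in galactose medium with compound in DMSO. Growth was read as OD600 after 30° C. incubation: 24 h for Ole1, 40 h for SCD1/SCD5.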

[2] = target: T2, SCD1 (Homo sapiens, UniProt O00767); assay: Growth inhibition of humanized yeast strain expressing SCD1 as sole desaturase; type: cell-based; details: for IC50 / SCD1 % Max Inhibition: humanized yeast strain expressing SCD1; for half-maximal inhibitory concentration (IC50): SCD1 humanized strain, FIG. 6
T2 construct: host or cells: S. cerevisiae ole1Δ strain (W303 pdr1Δ pdr3Δ background), plasmid pRS316 with TDH3 promoter and CYC1 terminator
T2 sequence (O00767 1-359): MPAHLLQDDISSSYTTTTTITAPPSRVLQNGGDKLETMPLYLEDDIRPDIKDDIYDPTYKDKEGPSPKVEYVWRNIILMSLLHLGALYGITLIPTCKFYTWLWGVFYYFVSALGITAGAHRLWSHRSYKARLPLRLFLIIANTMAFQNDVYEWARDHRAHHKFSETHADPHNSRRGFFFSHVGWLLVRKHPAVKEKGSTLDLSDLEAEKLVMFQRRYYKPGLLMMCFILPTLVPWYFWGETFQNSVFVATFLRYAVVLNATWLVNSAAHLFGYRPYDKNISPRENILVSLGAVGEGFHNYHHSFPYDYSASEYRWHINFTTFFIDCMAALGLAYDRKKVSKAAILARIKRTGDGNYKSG
In short: as §1

[3] = target: T3, SCD5 (Homo sapiens, UniProt Q86SK9); assay: Growth inhibition of humanized yeast strain expressing SCD5 as sole desaturase; type: cell-based; details: for IC50 / SCD5 % Max Inhibition: humanized yeast strain expressing SCD5; for half-maximal inhibitory concentration (IC50): SCD5 humanized strain, FIG. 6
T3 construct: host or cells: S. cerevisiae ole1Δ strain (W303 pdr1Δ pdr3Δ background), plasmid pRS316 with TDH3 promoter and CYC1 terminator
T3 sequence (Q86SK9 1-330): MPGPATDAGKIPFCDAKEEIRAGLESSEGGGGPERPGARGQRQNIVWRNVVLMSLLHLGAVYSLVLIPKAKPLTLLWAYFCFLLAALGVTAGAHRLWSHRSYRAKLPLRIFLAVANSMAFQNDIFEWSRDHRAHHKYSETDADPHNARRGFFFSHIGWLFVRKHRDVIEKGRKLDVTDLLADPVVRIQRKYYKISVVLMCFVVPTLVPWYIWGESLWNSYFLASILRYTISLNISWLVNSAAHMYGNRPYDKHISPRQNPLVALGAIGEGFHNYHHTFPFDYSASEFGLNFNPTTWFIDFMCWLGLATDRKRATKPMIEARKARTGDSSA
In short: as §1

[4] = test system: yeast strains expressing the human α-synuclein; assay: Yeast α-synuclein toxicity rescue assay (OD600 growth); details: 40 h; for EC50: read-out: α-Syn EC50; for Emax: read-out: α-Syn Emax

Structure (SMILES) | IC50 [1] [µM] | OLE1 % Max Inhibition [1] | IC50 [2] [µM] | SCD1 % Max Inhibition [2] | IC50 [3] [µM] | SCD5 % Max Inhibition [3] [%] | EC50 [4] [µM] | Emax [4] [%] | growth of yeast expressing OLE1 in presence of inhibitor [1] | half-maximal inhibitory concentration (IC50) [2] | half-maximal inhibitory concentration (IC50) [3]
COc1ccc(-c2noc(C3CCN(C(=O)C(C)(C)NC(=O)c4ccccc4)CC3)n2)cc1OC [Compound 29] | > 45 | 91.00% | > 45 | 69.52% | > 45 | 74.10 | 13.9 | 38 | – | – | –
COc1ccc(-c2noc(C3CCN(CCNC(=O)c4ccccc4)CC3)n2)cc1OC [Compound 32] | > 45 | 108.22% | > 45 | 84.16% | > 45 | 80.17 | 9.88 | 41 | – | – | –
COc1ccc(-c2nnc(C3CCN(C(=O)CNC(=O)c4ccccc4)CC3)o2)cc1OC [Compound 39] | > 45 | 110.89% | > 45 | 77.01% | > 45 | 79.10 | 18.1 | 216 | – | – | –
Cc1nn(C)c2cc(-c3noc(C4CCN(C(=O)CNC(=O)c5ccccc5)CC4)n3)ccc12 [Compound 40] | > 45 | 1.26% and 0.80% and 4.9% | > 45 | 41.70% and 47.19% and 57.7% | > 45 | – | 0.086 | 443 | – | – | –
COc1ccc(-c2noc(C3CCN(C(=O)CNC(C)=O)CC3)n2)cc1OC [Compound 46] | > 45 | 87.95% | > 45 | 70.27% | > 45 | 72.35 | 10.9 | 35 | – | – | –
COc1ccc(-c2noc(C3CCN(C(=O)CNC(=O)C(C)C)CC3)n2)cc1OC [Compound 47] | > 45 | 109.20% | > 45 | 73.30% | > 45 | 74.25 | 16.5 | 88 | – | – | –
COc1ccccc1-c1noc(C2CCN(C(=O)CNC(=O)c3ccc(C)c(C)c3)CC2)n1 [Compound 58] | > 45 | 92.35% | > 45 | 101.47% | > 45 | 66.93 | 7.94 | 23 | – | – | –
Cc1nn(C)c2ccc(-c3noc(C4CCN(C(=O)CNC(=O)c5ccccc5)CC4)n3)cc12 [Compound 95] | > 45 | – | 39.2 | – | > 45 | – | 0.091 | 827 | – | – | –
Cc1nn(C)c2cc(-c3noc(N4CCN(C(=O)c5cc(-c6ccccc6)no5)CC4)n3)ccc12 [Compound 103] | > 45 | 5.27% | > 45 | 93.33% | > 45 | 68.60 | 2.02 | 75 | – | – | –
O=C(NCC(=O)N1CCC(c2nc(-c3ccc4nsnc4c3)no2)CC1)c1ccccc1 [Compound 104] | > 45 | 110.40% | > 45 | 76.89% | > 45 | 77.11 | 1.87 | 253 | – | – | –
Cc1nnc(C)c2cc(-c3noc(C4CCN(C(=O)CNC(=O)c5ccccc5)CC4)n3)ccc12 [Compound 105] | > 45 | 34.19% | > 45 | 41.38% | > 45 | 13.93 | 3.18 | 391 | – | – | –
CCOc1ccc(-c2noc(C3CCN(C(=O)CN4Cc5ccccc5C4=O)CC3)n2)cc1OC [Compound 106] | > 45 | 35.35% | > 45 | 78.19% | > 45 | 71.22 | 0.1 | 415 | – | – | –
CCOc1ccc(-c2noc(C3CCN(C(=O)CNC(=O)c4ccccc4)CC3)n2)nc1OC [Compound 107] | > 45 | 4.55% | > 45 | 73.32% | > 45 | 74.80 | 2.9 | 312 | – | – | –
CCOc1ccc(-c2noc(C3CCN(C(=O)C4CC(=O)N(c5ccccc5)C4)CC3)n2)nc1OC (centres unmarked) [Compound 108] | > 45 | 72.04% | > 45 | 72.79% | > 45 | 64.66 | 11.1 | 316 | – | – | –
O=C(NCC(=O)N1CCC(c2nc(-c3ccc4c(c3)OC(F)(F)O4)no2)CC1)c1ccccc1 [Compound 109] | > 45 | 87.87% | > 45 | 84.36% | > 45 | 89.75 | 3.04 | 35 | – | – | –
CCN1CCOc2cc(-c3noc(C4CCN(C(=O)CNC(=O)c5ccccc5)CC4)n3)ccc21 [Compound 110] | > 45 | 96.31% | > 45 | 66.85% | > 45 | 65.07 | 4.49 | 374 | – | – | –
COc1cccc(-c2noc(C3CC(=O)N(c4ccc(C)c(C)c4)C3)n2)c1 (centres unmarked) [Compound 490] | > 45 | 96.38% | 38.8 | 63.84% | 35.1 | 50.39 | – | – | – | – | –
CCN1C(=O)COc2ccc(-c3noc(C4(c5ccc(OC)cc5)CC4)n3)cc21 [Compound 491] | > 45 | 107.15% | – | 118.81% | > 45 | 83.61 | – | – | – | – | –
CCN(Cc1nc(-c2ccc(OC)c(OC)c2)no1)C(=O)Cc1ccccc1 [Compound 492] | > 45 | 106.45% | – | 83.92% | > 45 | 75.64 | – | – | – | – | –
CCNCc1nc(-c2ccc3c(c2)N(CC)C(=O)CO3)no1 [Compound 493] | > 45 | 91.16% | – | 68.84% | 30.2 | 60.28 | – | – | – | – | –
CCN(Cc1nc(-c2ccc3c(c2)N(CC)C(=O)CO3)no1)C(=O)Cc1cccc2ccccc12 [Compound 494] | > 45 | 92.28% | – | 79.67% | > 45 | 73.76 | – | – | – | – | –
CNC(=O)c1cccc(NC(=O)N2CCC(Oc3ccccc3Cl)CC2)c1 [Compound A939572, reference compound] | – | – | – | – | – | – | – | – | resistant | low nanomolar | low nanomolar
Cc1nnc(-c2ccc(N3CCC(Oc4ccccc4C(F)(F)F)CC3)nn2)s1 [MF-438, reference compound] | – | – | – | – | – | – | – | – | resistant | low nanomolar | low nanomolar
CCOc1ccc(-c2noc(C3CCN(C(=O)CNC(=O)c4ccccc4)CC3)n2)cc1Cl [compound 87] | – | – | – | – | – | – | 1.93 | 579 | – | – | –
